Reference: patent publication US20260297095A1, “NOVEL PYRROLOTRIAZINE DERIVATIVE AND USE THEREOF” (Pelemed Co., Ltd., priority 2024, published 2026)

Tests used:
YES1 kinase = YES1 kinase (Homo sapiens, UniProt P07947); experiment: YES1 kinase inhibition, ADP Glo assay (Promega); type: biochemical; conditions: for IC50: class symbols, read-out: YES1 enzyme, IC50; for inhibition at 0.01 µM: compound 10 nM, read-out: YES1 enzyme, % inhibition, 10 nM; for inhibition at 0.1 µM: compound 100 nM, read-out: YES1 enzyme, % inhibition, 100 nM
In short: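 YES1 kinase was preincubated 10 min with compound in Mn2+/DTT-containing kinase buffer, then reacted 40 min at room temperature with ATP/substrate; ADP was detected by ADP-Glo luminescence. Activity, background-subtracted and normalised to negative control, is given as % inhibition at 1, 10 and 100 nM, plus IC50.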

[1] = tested on: KYSE-70 esophageal cancer cell line; experiment: Cell growth inhibition of KYSE-70 (Sulforhodamine B); type: cell-based; conditions: Homo sapiens; KYSE-70, 72 hours; read-out: KYSE70 GI50
In short: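 KYSE-70 cells (YES1-amplified) in RPMI-1640 with 10% FBS were seeded 24 h before treatment with compound at 0.0046–10 µM final. After 72 h, cells were TCA-fixed and stained with sulforhodamine B, with absorbance read at 510 nm. GI50 was derived with a time-zero plate set to 0% and the vehicle control to 100%, in duplicate tests.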

Chain of YES1 kinase (P07947 whole entry): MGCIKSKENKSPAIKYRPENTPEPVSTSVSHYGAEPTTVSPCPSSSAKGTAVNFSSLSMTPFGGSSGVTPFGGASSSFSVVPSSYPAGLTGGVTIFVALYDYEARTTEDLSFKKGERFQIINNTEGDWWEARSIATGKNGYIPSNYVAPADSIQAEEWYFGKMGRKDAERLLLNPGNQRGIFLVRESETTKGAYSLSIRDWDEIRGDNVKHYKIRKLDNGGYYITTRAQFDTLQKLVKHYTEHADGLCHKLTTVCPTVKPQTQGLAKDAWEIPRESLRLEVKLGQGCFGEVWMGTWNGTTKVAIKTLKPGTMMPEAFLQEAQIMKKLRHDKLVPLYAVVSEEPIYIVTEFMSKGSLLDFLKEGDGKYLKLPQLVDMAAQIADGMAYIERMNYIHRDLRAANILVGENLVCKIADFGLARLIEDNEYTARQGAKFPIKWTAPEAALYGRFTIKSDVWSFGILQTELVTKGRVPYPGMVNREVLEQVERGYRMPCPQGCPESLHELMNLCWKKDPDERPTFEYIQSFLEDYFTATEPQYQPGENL

| SMILES | IC50 (YES1 kinase) | GI50 [1] | inhibition at 0.01 µM (YES1 kinase) | inhibition at 0.1 µM (YES1 kinase) | YES1 kinase inhibition at 1 nM (in words) (YES1 kinase; compound 1 nM) | inhibition at 0.001 µM (YES1 kinase; compound 1 nM, read-out: YES1 enzyme, % inhibition, 1 nM) |
| --- | --- | --- | --- | --- | --- | --- |
| COc1cc(-c2cc(N3CCC(C)(CN)CC3)n3ncnc(N)c23)ccc1NC(=O)OC(C)(C)C [Example 123, tert-butyl (4-(4-amino-7-(4-(aminomethyl)-4-methylpiperidin-1-yl)pyrrolo[2,1-f][1,2,4]triazin-5-yl)-2-methoxyphenyl)carbamate] | ≤ 100 nM | ≤ 100 nM | – | – | – | – |
| COc1cc(-c2cc(-c3ccc4c(c3)oc(=O)n4C)n3ncnc(N)c23)ccc1NC(=O)OC(C)(C)C [Example 9, tert-butyl (4-(4-amino-7-(3-methyl-2-oxo-2,3-dihydrobenzo[d]oxazol-6-yl)pyrrolo[2,1-f][1,2,4]triazin-5-yl)-2-methoxyphenyl)carbamate] | – | 1000 to 10000 nM | 39% | 57% | – | – |
| COc1cc(-c2cc(N3CCC(C)(N)CC3)n3ncnc(N)c23)ccc1NC(=O)OC(C)(C)C [Example 45, tert-butyl (4-(4-amino-7-(4-amino-4-methylpiperidin-1-yl)pyrrolo[2,1-f][1,2,4]triazin-5-yl)-2-methoxyphenyl)carbamate] | ≤ 100 nM | ≤ 100 nM | 80% | 92% | – | – |
| COc1cc(-c2cc(N3CCC4(CC3)CNC4=O)n3ncnc(N)c23)ccc1NC(=O)OC(C)(C)C [Example 55, tert-butyl (4-(4-amino-7-(1-oxo-2,7-diazaspiro[3.5]nonan-7-yl)pyrrolo[2,1-f][1,2,4]triazin-5-yl)-2-methoxyphenyl)carbamate] | – | ≤ 100 nM | 40% | 76% | – | – |
| COc1cc(-c2cc(-c3ccc(N(C)C)cc3C)n3ncnc(N)c23)ccc1NC(=O)OC(C)(C)C [Example 2, tert-butyl (4-(4-amino-7-(4-(dimethylamino)-2-methylphenyl)pyrrolo[2,1-f][1,2,4]triazin-5-yl)-2-methoxyphenyl)carbamate] | – | > 10000 nM | 21% | 28% | – | – |
| COc1cc(-c2c(C)c(N3CCC(N)CC3)n3ncnc(N)c23)ccc1NC(=O)OC(C)(C)C [Example 74, tert-butyl (4-(4-amino-7-(4-aminopiperidin-1-yl)-6-methylpyrrolo[2,1-f][1,2,4]triazin-5-yl)-2-methoxyphenyl)carbamate] | ≤ 100 nM | ≤ 100 nM | 66% | – | could be inhibited even at a low concentration of 1 nM | 43% |
| COc1cc(-c2cc(N3CCC(NC(C)=O)CC3)n3ncnc(N)c23)ccc1NC(=O)OC(C)(C)C [Example 103, tert-butyl (4-(7-(4-acetamidopiperidin-1-yl)-4-aminopyrrolo[2,1-f][1,2,4]triazin-5-yl)-2-methoxyphenyl)carbamate] | – | 100 to 1000 nM | 27% | 66% | – | – |
| COc1cc(-c2cc(N3CC4(CC(N(C)C)C4)C3)n3ncnc(N)c23)ccc1NC(=O)OC(C)(C)C [Example 18, tert-butyl (4-(4-amino-7-(6-(dimethylamino)-2-azaspiro[3.3]heptan-2-yl)pyrrolo[2,1-f][1,2,4]triazin-5-yl)-2-methoxyphenyl)carbamate] | – | 100 to 1000 nM | 39% | 81% | – | – |
| COc1cc(-c2cc(N3CCC(CN)CC3)n3ncnc(N)c23)ccc1NC(=O)OC(C)(C)C [Example 59, tert-butyl (4-(4-amino-7-(4-(aminomethyl)piperidin-1-yl)pyrrolo[2,1-f][1,2,4]triazin-5-yl)-2-methoxyphenyl)carbamate] | ≤ 100 nM | 100 to 1000 nM | 56% | 80% | – | – |
| COc1cc(-c2c(F)c(N3CCC(N(C)C)CC3)n3ncnc(N)c23)ccc1NC(=O)OC(C)(C)C [Example 128, tert-butyl (4-(4-amino-7-(4-(dimethylamino)piperidin-1-yl)-6-fluoropyrrolo[2,1-f][1,2,4]triazin-5-yl)-2-methoxyphenyl)carbamate] | ≤ 100 nM | ≤ 100 nM | 72% | 92% | – | – |
